Converted amounts (≈) assume the structure as drawn. Like-named read-outs stand apart in the source and are kept apart here.
Tests used:
[1] = Solubility of crystalline modifications of Febuxostat in phosphate buffer; format: physicochemical
[2] = In-vitro dissolution of tablets, Ph. Eur. 2.9.3 / USP <711> Method 2 (Paddle Apparatus); format: physicochemical; conditions: Figures 2 and 3; same excipient mixture as example 1
Procedure: The in-vitro dissolution of tablets according to examples 2 to 5 were analyzed according to Ph. […]

Compound	Solubility ([1]; n=3)	influence on dissolution profile of interchange of crystalline form F10 by another crystalline form [2]	Solubility ([1]; aqueous buffer, n=3, read-out: Solubility) [mg/mL]
Cc1nc(-c2ccc(OCC(C)C)c(C#N)c2)sc1C(=O)O [Form "A", 2-[3-cyano-4-(2-methylpropoxy)phenyl]-4-methylthiazole-5-carboxylic acid]	0,10 mg/ml	does not influence the dissolution profile significantly	–
Cc1nc(-c2ccc(OCC(C)C)c(C#N)c2)sc1C(=O)O [Form "F10", 2-[3-cyano-4-(2-methylpropoxy)phenyl]-4-methylthiazole-5-carboxylic acid]	–	–	0.26 (≈ 822 µM)
Cc1nc(-c2ccc(OCC(C)C)c(C#N)c2)sc1C(=O)O [Form "G", 2-[3-cyano-4-(2-methylpropoxy)phenyl]-4-methylthiazole-5-carboxylic acid]	0,13 mg/ml	does not influence the dissolution profile significantly	–
Cc1nc(-c2ccc(OCC(C)C)c(C#N)c2)sc1C(=O)O [Form "II", 2-[3-cyano-4-(2-methylpropoxy)phenyl]-4-methylthiazole-5-carboxylic acid]	0,36 mg/ml	does not influence the dissolution profile significantly	–

From EP3002006A1, “Pharmaceutical composition capable for the incorporation Febuxostat in the crystalline modifications F10, II, G and A” (Bluepharma - Industria Farmacêutica, S.A., priority 2014, dated 2016)
